From ChEMBL document CHEMBL1146801, “Oxyguanidines. Part 2: Discovery of a novel orally active thrombin inhibitor through structure-based drug design and parallel synthesis” (Bioorg Med Chem Lett, 2004)

Legend:
[1] = test system: Caco-2; test: Apparent permeability coefficient (Papp) from the apical to basolateral side in the human Caco-2 monolayer was determined; type: functional
[2] = organism: Homo sapiens; test: Concentration of compound required to double the human activated partial thromboplastin time; type: functional
[3] = target: Prothrombin (Homo sapiens, UniProt P00734); test: Inhibitory activity against thrombin
[4] = Bioavailability in dog; type: ADME, organism-based, Canis lupus familiaris; conditions: in vivo
[5] = Half life on i.v. administration of 2 mg/kg was measured in dog; type: ADME, organism-based, Canis lupus familiaris; set-up: dose 2 mg/kg, route intravenous; conditions: in vivo, iv
[6] = Clearance on i.v. administration of 2 mg/kg was measured in dog; type: ADME, organism-based, Canis lupus familiaris; set-up: dose 2 mg/kg, route intravenous; conditions: in vivo, iv
[7] = Vss on i.v. administration of 2 mg/kg was measured in dog; type: ADME, organism-based, Canis lupus familiaris; set-up: dose 2 mg/kg, route intravenous; conditions: in vivo, iv, read-out: Vss
[8] = Cmax on p.o. administration of 10 mg/kg was measured in dog; type: ADME, organism-based, Canis lupus familiaris; set-up: dose 10 mg/kg, route oral; conditions: in vivo, po

With CCCN(Cc1ccoc1)C(=O)c1cc(C)cc(OCCCON=C(N)N)c1 the Activity [1] was 4.05e-06 cm/s and the 2 x APTT [2] was 11.5 µM.
With Cc1cc(OCCCON=C(N)N)cc(C(=O)N(Cc2ccoc2)CC2CCCCC2)c1 the Ki [3] was 21 nM.
Cc1cc(OCCCON=C(N)N)cc(C(=O)N(Cc2ccoc2)CC2CC2)c1 gave an Activity [1] of 3e-06 cm/s and a 2 x APTT [2] of 8.4 µM.
For CCCCN(Cc1ccoc1)C(=O)c1cc(C)cc(OCCCONC(=N)N)c1, the Ki [3] was 8 nM.
Work on CCCN(CC1CCCC1)C(=O)c1cc(Cl)cc(OCCCONC(=N)N)c1 yielded a Ki [3] of 38 nM.
In the case of Cc1cc(OCCCONC(=N)N)cc(C(=O)N(Cc2cccnc2)CC2CC2)c1, the Ki [3] is reported as 34 nM.
Work on CCCN(Cc1ccc(F)cc1)C(=O)c1cc(C)cc(OCCCON=C(N)N)c1 yielded a Ki [3] of 21 nM.
Work on N=C(N)NOCCCOc1cc(Cl)cc(C(=O)N2CCCCCC2)c1 yielded a Ki [3] of 470 nM.
CCOC(=O)CCN(CC1CC1)C(=O)c1cc(C)cc(OCCCONC(=N)N)c1 showed a Ki [3] of 65 nM.
Cc1cc(OCCCON=C(N)N)cc(C(=O)N(CCC(C)C)Cc2ccoc2)c1 showed a Ki [3] of 7 nM.
C=CCN(Cc1cccs1)C(=O)c1cc(Cl)cc(OCCCONC(=N)N)c1 gave a Ki [3] of 147 nM.
Cc1cc(OCCCONC(=N)N)cc(C(=O)N(Cc2ccsc2)CC2CC2)c1 showed a Ki [3] of 31 nM.
Compound C[C@H](CS)C(=O)N1CCC[C@H]1C(=O)O [CAPTOPRIL] has a Ki [3] of 48 nM.
N=C(N)NOCCCOc1cc(Cl)cc(C(=O)N(CCN2CCOCC2)CC2CC2)c1 gave a Ki [3] of 159 nM.
In the case of CCCN(Cc1ccccn1)C(=O)c1cc(C)cc(OCCCON=C(N)N)c1, the Ki [3] is reported as 94 nM.
Work on CCCN(Cc1ccncc1)C(=O)c1cc(C)cc(OCCCONC(=N)N)c1 yielded a Ki [3] of 73 nM.
For Cc1cc(OCCCONC(=N)N)cc(C(=O)N(CCCCCC(N)=O)C2CCCCC2)c1, the Ki [3] was 8 nM.
Work on N=C(N)NOCCCOc1cc(Cl)cc(C(=O)N(CCc2ccncc2)CC2CC2)c1 yielded a Ki [3] of 52 nM.
Compound CCN(Cc1ccncc1)C(=O)c1cc(Cl)cc(OCCCONC(=N)N)c1 has a Ki [3] of 1600 nM.
With C=CCN(C(=O)c1cc(C)cc(OCCCONC(=N)N)c1)C1CCCCC1 the Ki [3] was 9 nM.
In the case of Cc1cc(OCCCONC(=N)N)cc(C(=O)N(Cc2ccncc2)CC2CC2)c1, the Ki [3] is reported as 24 nM.
CCCN(Cc1ccoc1)C(=O)c1cc(C)cc(OCC2(CON=C(N)N)CC2)c1 gave an Activity [1] of 4.11e-06 cm/s, a bioavailability [4] of 73% and a half-life [5] of 264 min. For the same compound, the clearance [6] was 4.2 mL/min/kg, the Vd [7] was 1.7 L/kg and the Cmax [8] was 5.8 µM.
With N=C(N)NOCCCOc1cc(Cl)cc(C(=O)N2CCN(c3ccccn3)CC2)c1 the Ki [3] was 640 nM.
In the case of Cc1cc(OCC2(CON=C(N)N)CC2)cc(C(=O)N(Cc2ccoc2)CC2CC2)c1, the Activity [1] is reported as 2.17e-06 cm/s and the 2 x APTT [2] is reported as 8.7 µM.
Work on CCSCCN(Cc1ccoc1)C(=O)c1cc(C)cc(OCCCON=C(N)N)c1 yielded a Ki [3] of 6 nM.
For Cc1cc(OCCCONC(=N)N)cc(C(=O)N(Cc2ccoc2)C2CCC2)c1, the Ki [3] was 22 nM.
N=C(N)NOCCCOc1cc(Cl)cc(C(=O)N2CCc3ccccc3C2)c1 showed a Ki [3] of 171 nM.
For CN(C(=O)c1cc(Cl)cc(OCCCONC(=N)N)c1)C1CCCC1, the Ki [3] was 373 nM.
COCCN(CC1CC1)C(=O)c1cc(Cl)cc(OCCCONC(=N)N)c1 gave a Ki [3] of 156 nM.
With COC(=O)CCN(CC1CC1)C(=O)c1cc(Cl)cc(OCCCONC(=N)N)c1 the Ki [3] was 38 nM.
With N=C(N)NOCCCOc1cc(Cl)cc(C(=O)N2CCC(Cc3ccccc3)CC2)c1 the Ki [3] was 1500 nM.
C=CCN(C(=O)c1cc(C)cc(OCCCON=C(N)N)c1)C1CCCC1 showed an Activity [1] of 4.86e-06 cm/s and a 2 x APTT [2] of 11.3 µM.
CCCN(CC1CCC1)C(=O)c1cc(Cl)cc(OCCCON=C(N)N)c1 showed a Ki [3] of 16 nM.
In the case of Cc1cc(OCCCON=C(N)N)cc(C(=O)N(Cc2ccoc2)C(C)C)c1, the Ki [3] is reported as 68 nM.
Compound N=C(N)NOCCCOc1cc(Cl)cc(C(=O)N2CCCCC2)c1 has a Ki [3] of 880 nM.
In the case of N=C(N)NOCCCOc1cc(Cl)cc(C(=O)N2CCN(c3ccccc3)CC2)c1, the Ki [3] is reported as 2900 nM.
C=CCN(C(=O)c1cc(C)cc(OCCCONC(=N)N)c1)C1CCCC1 showed a bioavailability [4] of 89%, a Ki [3] of 10 nM and a half-life [5] of 222 min. It also gave a clearance [6] of 11.2 mL/min/kg, a Vd [7] of 2.8 L/kg and a Cmax [8] of 3.7 µM.
N=C(N)NOCCCOc1cc(Cl)cc(C(=O)N(CCC(=O)O)CC2CC2)c1 gave a Ki [3] of 213 nM.
With N=C(N)NOCCCOc1cc(Cl)cc(C(=O)N(Cc2ccoc2)CC2CC2)c1 the Ki [3] was 17 nM.
In the case of N=C(N)NOCCCOc1cc(Cl)cc(C(=O)N(CCc2ccccn2)CC2CC2)c1, the Ki [3] is reported as 59 nM.
For N=C(N)NOCCCOc1cc(Cl)cc(C(=O)N(CCN2CCCC2)CC2CC2)c1, the Ki [3] was 204 nM.
With CCCN(Cc1ccoc1)C(=O)c1cc(C)cc(OCCCONC(=N)N)c1 the bioavailability [4] was 62%, the Ki [3] was 9 nM and the half-life [5] was 228 min. The clearance [6] was 10.1 mL/min/kg, the Vd [7] was 2.4 L/kg and the Cmax [8] was 4.5 µM.
For CCCN(CC1CC1)C(=O)c1cc(Cl)cc(OCCCONC(=N)N)c1, the Ki [3] was 23 nM.
For CCCN(Cc1cccnc1)C(=O)c1cc(C)cc(OCCCONC(=N)N)c1, the Ki [3] was 52 nM.
C=CCN(Cc1ccoc1)C(=O)c1cc(Cl)cc(OCCCONC(=N)N)c1 showed a Ki [3] of 20 nM.
N=C(N)NOCCCOc1cc(Cl)cc(C(=O)N(CCc2cccnc2)CC2CC2)c1 showed a Ki [3] of 47 nM.
COCCN(Cc1ccoc1)C(=O)c1cc(C)cc(OCCCON=C(N)N)c1 gave a Ki [3] of 28 nM.
For CCN(Cc1ccccc1)C(=O)c1cc(Cl)cc(OCCCONC(=N)N)c1, the Ki [3] was 91 nM.
Work on CCCN(CC1CCC1)C(=O)c1cc(C)cc(OCCCON=C(N)N)c1 yielded a Ki [3] of 17 nM.
Compound CCCN(Cc1nccs1)C(=O)c1cc(C)cc(OCCCONC(=N)N)c1 has a Ki [3] of 195 nM.
Cc1cc(OCC2(CONC(=N)N)CC2)cc(C(=O)N(Cc2ccoc2)CC2CC2)c1 gave a bioavailability [4] of 77%, a Ki [3] of 4 nM and a half-life [5] of 354 min. It also gave a clearance [6] of 5.7 mL/min/kg, a Vd [7] of 2.5 L/kg and a Cmax [8] of 4.1 µM.
Compound CCN(C(=O)c1cc(C)cc(OCCCONC(=N)N)c1)C1CCCCC1 has a Ki [3] of 6 nM.
Compound Cc1cc(OCCCONC(=N)N)cc(C(=O)N(Cc2ccoc2)CC2CC2)c1 has a bioavailability [4] of 68%, a Ki [3] of 11 nM and a half-life [5] of 150 min. For the same compound, the clearance [6] was 7.8 mL/min/kg, the Vd [7] was 1.6 L/kg and the Cmax [8] was 5.1 µM.
Work on Cc1cc(OCCCONC(=N)N)cc(C(=O)N(CCC(N)=O)Cc2ccoc2)c1 yielded a Ki [3] of 110 nM.
For Cc1cc(OCCCONC(=N)N)cc(C(=O)N(Cc2ccccn2)CC2CC2)c1, the Ki [3] was 86 nM.
For CN(C(=O)c1cc(Cl)cc(OCCCON=C(N)N)c1)C1CCCCC1, the Ki [3] was 33 nM.
